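Five concentrations, 48 hours, 96-well plates. The concentration for 50% growth inhibition is given as GI50. TGI denotes the concentration required for complete inhibition of growth.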
Key:
Test in all cases: NCI-60 cell line screen, 48 h
MDA-MB-435 = tested on: MDA-MB-435
NCI-H23 lung = tested on: NCI-H23 lung
NCI-H460 lung = tested on: NCI-H460 lung
OVCAR-3 ovarian = tested on: OVCAR-3 ovarian
OVCAR-8 ovarian = tested on: OVCAR-8 ovarian
RPMI-8226 leukemia = tested on: RPMI-8226 leukemia
RXF 393 renal = tested on: RXF 393 renal
SK-OV-3 ovarian = tested on: SK-OV-3 ovarian
T-47D breast = tested on: T-47D breast
UO-31 renal = tested on: UO-31 renal

Row | SMILES | GI50 (MDA-MB-435) [µM] | TGI (MDA-MB-435) [µM] | GI50 (NCI-H23 lung) [µM] | TGI (NCI-H23 lung) [µM] | GI50 (NCI-H460 lung) [µM] | TGI (NCI-H460 lung) [µM] | GI50 (OVCAR-3 ovarian) [µM] | TGI (OVCAR-3 ovarian) [µM] | GI50 (OVCAR-8 ovarian) [µM] | TGI (OVCAR-8 ovarian) [µM] | GI50 (RPMI-8226 leukemia) [µM] | TGI (RPMI-8226 leukemia) [µM] | GI50 (RXF 393 renal) [µM] | TGI (RXF 393 renal) [µM] | GI50 (SK-OV-3 ovarian) [µM] | TGI (SK-OV-3 ovarian) [µM] | GI50 (T-47D breast) [µM] | TGI (T-47D breast) [µM] | GI50 (UO-31 renal) [µM] | TGI (UO-31 renal) [µM]
1 | N#CC(C#N)=CN1CCN(C(=O)c2ccco2)C1=S | 5.28 | 40 | 5.78 | 22.5 | 3.29 | > 100 | 11.2 | > 100 | 14.6 | > 100 | 4.53 | > 100 | 2.63 | 6.6 | 33.1 | 86.5 | 21.2 | > 100 | 10.5 | 30.1
2 | O=C(O)C(=C\c1ccc2c(c1)OCO2)/C(=C/c1ccc2c(c1)OCO2)C(=O)O |  | > 100 |  | > 100 |  | > 100 |  | > 100 |  | > 100 |  | > 100 |  | > 100 |  | > 100 |  | > 100 |  | > 100
3 | Cc1c(C#N)c2nnn(C)c(=O)n2c1-c1ccccc1 |  | > 100 |  | > 100 |  | > 100 |  | > 100 |  | > 100 |  | > 100 |  | > 100 |  | > 100 |  |  |  | > 100

Source: PubChem BioAssay (NCI)
